In US20130184337A1, “SODIUM ASCORBATE STIMULATION OF ELASTOGENESIS” (THE HOSPITAL FOR SICK CHILDREN, priority 2012, published 2013):
Entries after “also recorded” stand apart in the source; their conditions may differ.

Key:
[1] = tested on: reactive oxygen species (ROS); experiment: Intracellular ROS with CM-H2DCFDA probe (fluorescence microscope, flow cytophotometry); format: cell-based, human; conditions: 100 μM, 2 hours
Method: Quantification of Intracellular free radicals-reactive oxygen species (ROS)—To assess the levels of ROS, quadruplicate cultures of normal skin fibroblasts were exposed to 10 μM of ROS-sensitive CM-H2DCFDA fluorescent probe (Molecular Probes, Eugene, Oreg.) for 30 minutes. This probe passively diffuses into the cell interior and only upon oxidation is a fluorescent product released that can be visualized under a fluorescent microscope or captured by flow cytophotometry when excited at 480 nm. Fibroblasts were then maintained for 30 minutes in the presence or absence of 400 μM probenecid, then incubated either for 2 or 24 hours with and without 100 μM AA or 100 μM SA. At the end of these periods the images were captured using a fluorescent microscope under identical parameters of contrast and brightness. The ROS production was also assessed by flow cytophotometry (λ excitation 480 nm; λ emission 520 nm), using FACSCalibur, Beckton Dickinson Instrument.

[2] = tested on: fibroblasts derived from dermal stretch marks; experiment: Collagen and elastic fiber deposition in stretch-mark fibroblast cultures; format: cell-based, human; conditions: 200 μM, 24 hour-old cultures
Method: Cell Cultures-Fibroblasts initially grew out from the explants of these full thickness skin biopsies and were maintained. The primary cultures of fat-derived fibroblasts obtained from Thermogenesis (Rancho Cordova, Calif.) were also tested. In all described experiments, 2-4 passages of both kinds of fibroblasts were used. In experiments aimed at assessing ECM production, cells were initially plated at a concentration of 100,000 cells/dish. […] Immuno-staining-All cultures maintained in the presence and absence of indicated reagents were either fixed in cold 100% methanol at -20° C. (for detection of elastin) or in 4% paraformaldehyde at room temperature (for detection of collagen I). The multiple parallel cultures were then incubated with 10 μg/ml of polyclonal antibody to tropoelastin (Elastin Products, Owensville, Mich.), or polyclonal antibody to collagen type I (Chemicon, Temecula, Calif.). Cultures were then incubated with the respective fluorescein-conjugated goat anti-rabbit, goat anti-mouse, or rabbit anti-goat secondary antibodies. Nuclei were counterstained with propidium iodide (Sigma, Sigma, St. Louis, Mo.). All of the cultures were then examined with a Nikon Eclipse […] microscope attached to a cooled CCD camera (QImaging, Retiga EX) and analyzed by the computer-generated morphometric analysis system (Image-Pro Plus software, Media Cybernetics, Silver Springs, Md.) as previously described. Quantitative Assays of Insoluble Elastin-Fibroblasts were grown to confluency in 35-mm culture dishes (100,000 cells/dish). Next, 2 μCi of [3H]-valine/ml (Amersham Biosciences Ltd. Oakville, Canada), were added to each dish along with or without the indicated treatments. At the end of each experiment, the levels of metabolically labeled NaOH-insoluble elastin present in individual cultures were assayed and normalized per their DNA content.

[3] = tested on: normal dermal fibroblasts; experiment: Collagen fiber deposition (immuno-staining of collagen type I, morphometry); format: cell-based, human; conditions: 100 μM, 24-hour-old cultures, 5% FBS
Method: Cell Cultures—Fibroblasts initially grew out from the explants of these full thickness skin biopsies and were maintained. The primary cultures of fat-derived fibroblasts obtained from Thermogenesis (Rancho Cordova, Calif.) were also tested. In all described experiments, 2-4 passages of both kinds of fibroblasts were used. In experiments aimed at assessing ECM production, cells were initially plated at a concentration of 100,000 cells/dish. Confluent cultures were then maintained either in serum-free medium (DMEM) or in medium supplemented with 5% FBS in the presence of different reagents that were added 1 hour before treatments with SA.
Immuno-staining—All cultures maintained in the presence and absence of indicated reagents were either fixed in cold 100% methanol at −20° C. (for detection of elastin) or in 4% paraformaldehyde at room temperature (for detection of collagen I). The multiple parallel cultures were then incubated with 10 μg/ml of polyclonal antibody to tropoelastin (Elastin Products, Owensville, Mich.), or polyclonal antibody to collagen type I (Chemicon, Temecula, Calif.). Cultures were then incubated with the respective fluorescein-conjugated goat anti-rabbit, goat anti-mouse, or rabbit anti-goat secondary antibodies. Nuclei were counterstained with propidium iodide (Sigma, Sigma, St. Louis, Mo.). All of the cultures were then examined with a Nikon Eclipse E1000 microscope attached to a cooled CCD camera (QImaging, Retiga EX) and analyzed by the computer-generated morphometric analysis system (Image-Pro Plus software, Media Cybernetics, Silver Springs, Md.) as previously described.

IGF-1 receptor = target: T1, IGF-1 receptor (Homo sapiens, UniProt P08069); experiment: IGF-1R phosphorylation (immuno-precipitation, anti-phospho-tyrosine Western blot); format: cell-based; conditions: for levels of IGF-1R phosphorylation: 100 μM SA alone
T1 construct: immuno-precipitated with antibody to β subunit of IGF-1R and detected by Western blotting with anti-phospho-tyrosine antibody; endogenous in cells; host or cells: cultured dermal fibroblasts
T1 sequence (P08069 741-1367 limits assumed): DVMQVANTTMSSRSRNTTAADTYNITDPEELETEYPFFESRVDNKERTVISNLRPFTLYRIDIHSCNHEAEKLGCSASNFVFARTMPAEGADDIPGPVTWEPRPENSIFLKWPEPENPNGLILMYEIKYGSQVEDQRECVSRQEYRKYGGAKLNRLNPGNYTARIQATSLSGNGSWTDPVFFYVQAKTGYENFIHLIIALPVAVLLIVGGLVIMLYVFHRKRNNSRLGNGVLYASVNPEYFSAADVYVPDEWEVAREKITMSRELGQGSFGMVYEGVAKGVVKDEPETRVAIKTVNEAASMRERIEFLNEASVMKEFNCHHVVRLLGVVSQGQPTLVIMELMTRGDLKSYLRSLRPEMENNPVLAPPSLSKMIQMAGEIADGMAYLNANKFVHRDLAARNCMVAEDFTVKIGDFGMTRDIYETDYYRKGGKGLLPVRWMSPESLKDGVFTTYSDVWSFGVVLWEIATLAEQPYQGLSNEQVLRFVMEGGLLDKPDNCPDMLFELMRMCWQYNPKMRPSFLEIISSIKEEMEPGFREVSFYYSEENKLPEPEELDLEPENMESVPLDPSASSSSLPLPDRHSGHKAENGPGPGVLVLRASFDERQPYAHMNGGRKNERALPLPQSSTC
T1 sequence (P08069 31-736 partner limits assumed): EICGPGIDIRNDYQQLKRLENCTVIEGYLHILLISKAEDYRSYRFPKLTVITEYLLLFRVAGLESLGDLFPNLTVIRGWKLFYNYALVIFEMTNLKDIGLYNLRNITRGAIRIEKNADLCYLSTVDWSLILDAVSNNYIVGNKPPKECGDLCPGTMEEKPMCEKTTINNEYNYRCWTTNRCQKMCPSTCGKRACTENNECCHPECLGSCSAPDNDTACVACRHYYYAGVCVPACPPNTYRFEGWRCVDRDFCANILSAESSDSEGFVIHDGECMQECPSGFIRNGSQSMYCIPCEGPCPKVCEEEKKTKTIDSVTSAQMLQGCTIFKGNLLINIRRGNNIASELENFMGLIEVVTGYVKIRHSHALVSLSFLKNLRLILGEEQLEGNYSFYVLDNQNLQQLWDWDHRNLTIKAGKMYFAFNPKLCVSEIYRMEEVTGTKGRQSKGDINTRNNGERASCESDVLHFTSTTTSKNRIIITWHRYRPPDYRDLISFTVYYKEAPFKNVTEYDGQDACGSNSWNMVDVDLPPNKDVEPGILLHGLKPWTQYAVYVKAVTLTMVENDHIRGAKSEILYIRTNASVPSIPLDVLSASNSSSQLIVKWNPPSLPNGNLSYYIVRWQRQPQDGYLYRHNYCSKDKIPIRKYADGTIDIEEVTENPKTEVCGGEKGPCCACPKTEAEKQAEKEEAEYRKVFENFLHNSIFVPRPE
Method: At the end of each experiment cells were submerged in the lysis buffer containing a broad-range phosphatase inhibitor. The polyclonal antibodies recognizing either the β subunits of the IGF-IR or the β subunit of the insulin receptor were immobilized on separate sets of the IgG-bearing magnetic beads (Invitrogen Canada Inc, Burlington, ON) and then incubated for 1 hour with the aliquots of the cell lysates containing 400 μg of protein as described in the manufacturer protocol. The beads bearing the resulting immuno-precipitation products were re-suspended in sample buffer and the released proteins were resolved with SDS-PAGE and subjected to Western blotting with a monoclonal anti-p-Tyr (PY99) antibody from Santa Cruz Biotechnology Inc. (Santa Cruz, Calif.) and then with HRP-conjugated goat anti-mouse secondary antibody.

normal skin explants = experiment: Organ culture of skin explants (Movat pentachrome morphometry, insoluble elastin); format: cell-based, human; conditions: 200 μM, 10-day-long daily treatment
Method: Organ culture of skin explants—Fragments of normal skin, stretch-marked skin and dermal scars collected during […] 5% FBS, in the presence or absence of 200 μM SA alone or in combination with 200 μM DMOG as described in figure legends. The parallel quadruplicate explants from each experimental group were additionally maintained in the presence 2 μCi of [3H]-valine/ml and then subjected to the assay of insoluble elastin. The parallel explants from each experimental groups were also evaluated after pentachrome Movat's staining which allows for clear marking of elastic fibers. In each experimental group, 50 sections derived from quadruplicate explants were analyzed.

[4] = tested on: intracellular tropoelastin; experiment: Western blot of intracellular tropoelastin; format: cell-based, human; conditions: 50-200 μM, 20-hour-old cultures, 5% FBS
Method: Western Blots—At the end of indicated experiments, cells were lysed with NP-40 buffer containing a cocktail of broad spectrum inhibitors of proteinases and phosphatases. The 50 μg aliquots of protein extract were then resolved by SDS-PAGE gel (4-12% gradient) in reducing conditions and analyzed by Western blot with antibodies indicated in figure legends, as previously described. Initial blots were also re-probed with monoclonal anti-β-actin antibody (Cell Signaling Technology Inc., Danvers, Mass.) to confirm the equal protein loading. The degree of expression was measured by densitometry.

Compound: O=C1O[C@H]([C@@H](O)CO)C([O-])=C1O.[Na+] [SA, (+)-sodium L-ascorbate]
- levels of intracellular ROS [1]: significantly lower levels of ROS
- production of collagen fibers [2]: significantly up-regulated
- production of elastic fibers / elastogenesis [2]: significantly up-regulated
- deposition of immuno-detected collagen fibers [3]: more potent up-regulation in the deposition of immuno-detected collagen fibers than 100 μM AA; also recorded: more potent upregulation in collagen fibers deposition than 100 μM AA
- levels of IGF-1R phosphorylation (IGF-1 receptor; medium with FBS): remarkably enhanced levels of IGF-1R phosphorylation; also recorded: enhances the level of phosphorylation of the IGF-1R
- levels of IGF-1R phosphorylation (IGF-1 receptor; serum-free medium): did not reveal any increase in IGF-1R phosphorylation
- levels of IGF-1-induced IGF-1R phosphorylation (IGF-1 receptor; 100 μM SA plus 50 ng/ml IGF-1, both tested media): significantly enhanced the levels of phosphorylated IGF-IR; also recorded: enhances levels of IGF-1-induced IGF-IR phosphorylation in both tested media
- deposition of new elastic fibers (normal skin explants): enhanced deposition of new elastic fibers
- levels of newly synthesized tropoelastin [4]: increase in the levels of newly synthesized tropoelastin
